Results as given in ChEMBL document CHEMBL1151613, “Potential anticancer agents XXXI. N-demethylation of fagaronine” (1984).
Converted amounts (≈) assume the structure as drawn. The source made the active and inactive calls. The calls are words filed in the database; no cut-off is given here.

Columns and labels:
KB [1] = assay: Cytotoxicity against human KB cells after 48 hrs; format: functional; conditions: read-out: ED50 (the source's name)
P388 [2] = assay: Cytotoxicity against mouse P388 cells after 48 hrs; format: functional; conditions: P388, 48 h, read-out: ED50 (the source's name)
KB [3] = assay: Cytotoxicity against human KB cells at 25 ug/ml after 48 hrs; format: functional, cell-based
P388 [4] = assay: Cytotoxicity against mouse P388 cells at 25 ug/ml after 48 hrs; format: functional, cell-based
[5] = In vivo antitumor activity against mouse CD8F1 cells at 125 mg/kg administered on day 24 relative to control; format: functional
MX1 [6] = assay: In vivo antitumor activity against human MX1 cells at 1200 mg/kg administered on day 1, 5 and 9 relative to control; format: functional
CX-1 [7] = assay: In vivo antitumor activity against human CX-1 cells at 300 mg/kg administered on day 1, 5, 9 and 13 relative to control; format: functional
L1210 [8] = assay: In vivo antitumor activity against mouse L1210 cells at 80 mg/kg administered on day 1 and 9 relative to control; format: functional
P388 [9] = assay: In vivo antitumor activity against mouse P388 cells at 160 mg/kg administered on day 1, 5 and 9 relative to control; format: functional
MC-38 [10] = assay: In vivo antitumor activity against mouse Colon 38 cells at 100 mg/kg administered on day 2 and 9 relative to control; format: functional
P388 [11] = assay: In vivo antitumor activity against mouse P388 cells at 80 mg/kg administered on day 1, 5 and 9 relative to control; format: functional
Colon 26 [12] = assay: In vivo antitumor activity against mouse Colon 26 cells at 80 mg/kg administered on day 1, 5 and 9 relative to control; format: functional
L1210 [13] = assay: In vivo antitumor activity against mouse L1210 cells at 40 mg/kg administered on day 1 and 9 relative to control; format: functional
L1210 [14] = assay: In vivo antitumor activity against mouse L1210 cells at 320 mg/kg administered on day 1 and 9 relative to control; format: functional
L1210 [15] = assay: In vivo antitumor activity against mouse L1210 cells at 80 mg/kg administered on day 1, 5 and 9 relative to control; format: functional
P388 [16] = assay: In vivo antitumor activity against mouse P388 cells at 40 mg/kg for 1 to 9 days relative to control; format: functional
L1210 [17] = assay: In vivo antitumor activity against mouse L1210 cells at 160 mg/kg administered on day 1 and 9 relative to control; format: functional
LX-1 [18] = assay: In vivo antitumor activity against human LX1 cells at 600 mg/kg administered on day 1, 5 and 9 relative to control; format: functional
B16 [19] = assay: In vivo antitumor activity against mouse B16 cells at 100 mg/kg for 1 to 9 days relative to control; format: functional
[20] = tested on: Lewis lung carcinoma cell line; assay: In vivo antitumor activity against mouse LLC cells at 200 mg/kg for 1 to 9 days relative to control; format: functional
[21] = tested on: Lewis lung carcinoma cell line; assay: In vivo antitumor activity against mouse LLC cells at 25 mg/kg for 1 to 9 days relative to control; format: functional
P388 [22] = assay: In vivo antitumor activity against mouse P388 cells at 25 mg/kg for 1 to 10 days relative to control; format: functional
MX1 [23] = assay: In vivo antitumor activity against human MX1 cells at 600 mg/kg administered on day 1, 5 and 9 relative to control; format: functional
B16 [24] = assay: In vivo antitumor activity against mouse B16 cells at 200 mg/kg for 1 to 9 days relative to control; format: functional
MC-38 [25] = assay: In vivo antitumor activity against mouse Colon 38 cells at 50 mg/kg administered on day 2 and 9 relative to control; format: functional
MC-38 [26] = assay: In vivo antitumor activity against mouse Colon 38 cells at 200 mg/kg administered on day 2 and 9 relative to control; format: functional
[27] = In vivo antitumor activity against mouse CD8F1 cells at 1000 mg/kg administered on day 24 relative to control; format: functional
L1210 [28] = assay: In vivo antitumor activity against mouse L1210 cells at 320 mg/kg administered on day 1, 5 and 9 relative to control; format: functional
MX1 [29] = assay: In vivo antitumor activity against human MX1 cells at 150 mg/kg administered on day 1, 5 and 9 relative to control; format: functional
CX-1 [30] = assay: In vivo antitumor activity against human CX-1 cells at 75 mg/kg administered on day 1, 5,9 and 13 relative to control; format: functional
[31] = In vivo antitumor activity against mouse CD8F1 cells at 2000 mg/kg on day 24 relative to control; format: functional
P388 [32] = assay: In vivo antitumor activity against mouse P388 cells at 40 mg/kg administered on day 1, 5 and 9 relative to control; format: functional
P388 [33] = assay: In vivo antitumor activity against mouse P388 cells at 320 mg/kg for 1 to 9 days relative to control; format: functional
L1210 [34] = assay: In vivo antitumor activity against mouse L1210 cells at 160 mg/kg administered on day 1, 5 and 9 relative to control; format: functional
Colon 26 [35] = assay: In vivo antitumor activity against mouse Colon 26 cells at 40 mg/kg administered on day 1, 5 and 9 relative to control; format: functional
LX-1 [36] = assay: In vivo antitumor activity against human LX1 cells at 2400 mg/kg administered on day 1, 5 and 9 relative to control; format: functional
MX1 [37] = assay: In vivo antitumor activity against human MX1 cells at 300 mg/kg relative to control on day 1, 5 and 9 relative to control; format: functional
CX-1 [38] = assay: In vivo antitumor activity against human CX-1 cells at 150 mg/kg administered on day 1, 5,9 and 13 relative to control; format: functional
CX-1 [39] = assay: In vivo antitumor activity against human CX-1 cells at 600 mg/kg administered on day 1, 5, 9 and 13 relative to control; format: functional
Colon 26 [40] = assay: In vivo antitumor activity against mouse Colon 26 cells at 160 mg/kg administered on day 1, 5 and 9 relative to control; format: functional
[41] = tested on: Lewis lung carcinoma cell line; assay: In vivo antitumor activity against mouse LLC cells at 50 mg/kg for 1 to 9 days relative to control; format: functional
[42] = In vivo antitumor activity against mouse CD8F1 cells at 500 mg/kg administered on day 24 relative to control; format: functional
LX-1 [43] = assay: In vivo antitumor activity against human LX1 cells at 1200 mg/kg administered on day 1, 5 and 9 relative to control; format: functional
B16 [44] = assay: In vivo antitumor activity against mouse B16 cells at 50 mg/kg for 1 to 9 days relative to control; format: functional
[45] = In vivo antitumor activity against mouse CD8F1 cells at 250 mg/kg administered on day 24 relative to control; format: functional
L1210 [46] = assay: In vivo antitumor activity against mouse L1210 cells at 40 mg/kg administered on day 1, 5 and 9 relative to control; format: functional
P388 [47] = assay: In vivo antitumor activity against mouse P388 cells at 160 mg/kg for 1 to 9 days relative to control; format: functional
P388 [48] = assay: In vivo antitumor activity against mouse P388 cells at 320 mg/kg administered on day 1, 5 and 9 relative to control; format: functional
Colon 26 [49] = assay: In vivo antitumor activity against mouse Colon 26 cells at 320 mg/kg administered on day 1, 5 and 9 relative to control; format: functional
LX-1 [50] = assay: In vivo antitumor activity against human LX1 cells at 300 mg/kg administered on day 1, 5 and 9 relative to control; format: functional
P388 [51] = assay: In vivo antitumor activity against mouse P388 cells at 50 mg/kg for 1 to 10 days relative to control; format: functional
P388 [52] = assay: In vivo antitumor activity against mouse P388 cells at 100 mg/kg for 1 to 10 days relative to control; format: functional
P388 [53] = assay: In vivo antitumor activity against mouse P388 cells at 80 mg/kg for 1 to 9 days relative to control; format: functional
[54] = tested on: Lewis lung carcinoma cell line; assay: In vivo antitumor activity against mouse LLC cells at 100 mg/kg for 1 to 9 days relative to control; format: functional

COc1cc2c(cnc3c4cc(OC)c(OC(C)=O)cc4ccc23)cc1OC(C)=O
EC50 (KB [1]): 50 µg/mL (≈ 123 µM) | EC50 (P388 [2]): 12.5 µg/mL (≈ 30.8 µM)

COc1cc2c(ccc3c4cc(OC)c(OC)cc4cnc23)cc1O
EC50 (P388 [2]): 36.5 µg/mL (≈ 109 µM) | Activity (KB [3]): inactive

COc1cc2c(cnc3c4cc(OC)c(O)cc4ccc23)cc1O
EC50 (KB [1]): 22.4 µg/mL (≈ 69.7 µM) | EC50 (P388 [2]): 13 µg/mL (≈ 40.5 µM)

COc1cc2cnc3c4cc(OC)c(OC(C)=O)cc4ccc3c2cc1OC
Activity (P388 [4]): inactive | Activity (KB [3]): inactive

COc1cc2cnc3c4cc(OC)c(OC)cc4ccc3c2cc1OC
Activity (P388 [4]): inactive | Activity (KB [3]): inactive

COc1cc2c(ccc3c4cc(OC)c(OC)cc4c[n+](C)c23)cc1O.[Cl-] [FAGARONINE]
T/C [5]: 137% | T/C (MX1 [6]): 68% | T/C (CX-1 [7]): 51% | T/C (L1210 [8]): 159% | T/C (P388 [9]): 215% | T/C (MC-38 [10]): 89% | T/C (P388 [11]): 180% | T/C (Colon 26 [12]): 121% | T/C (L1210 [13]): 137% | T/C (L1210 [14]): 161% | T/C (L1210 [15]): 145% | T/C (P388 [16]): 190% | T/C (L1210 [17]): 145% | T/C (LX-1 [18]): 79% | T/C (B16 [19]): 97% | EC50 (KB [1]): 0.57 µg/mL | T/C [20]: 134% | T/C [21]: 111% | T/C (P388 [22]): 90% | T/C (MX1 [23]): 79% | T/C (B16 [24]): 100% | T/C (MC-38 [25]): 139% | T/C (MC-38 [26]): 81% | T/C [27]: 89% | T/C (L1210 [28]): 137% | T/C (MX1 [29]): 83% | T/C (CX-1 [30]): 49% | T/C [31]: 121% | T/C (P388 [32]): 190% | T/C (P388 [33]): 205% | T/C (L1210 [34]): 136% | T/C (Colon 26 [35]): 117% | T/C (LX-1 [36]): 65% | T/C (MX1 [37]): 74% | T/C (CX-1 [38]): 42% | T/C (CX-1 [39]): 75% | T/C (Colon 26 [40]): 120% | T/C [41]: 113% | T/C [42]: 134% | EC50 (P388 [2]): 0.18 µg/mL | T/C (LX-1 [43]): 46% | T/C (B16 [44]): 108% | T/C [45]: 190% | T/C (L1210 [46]): 143% | T/C (P388 [47]): 270% | T/C (P388 [48]): 270% | T/C (Colon 26 [49]): 138% | T/C (LX-1 [50]): 107% | T/C (P388 [51]): 210% | T/C (P388 [52]): 265% | T/C (P388 [53]): 210% | T/C [54]: 125%
